Like-named read-outs stand apart in the source and are kept apart here.
Legend:
[1] = Olmesartan blood concentration/AUC after 7-day versus single-day dosing; format: in vivo, Korean healthy males
[2] = highest dose, olmesartan at 40 mg/day; cited from earlier work
[3] = Olmesartan blood concentration/AUC after 7-day versus single-day dosing; format: in vivo, Korean healthy males; conditions: for % Reduction: Compliance-7X vs Non-Compliance-1X
Procedure: Drug exposure as AUC was studied among Korean healthy males aged between 20 and 50 years in two clinical studies: (1) taking drug regularly for 7 days (subjects were administered either 1 tablet of 40 mg olmesartan medoxomil, 1 tablet of 20 mg rosuvastatin calcium, or 1 tablet each of both agents orally every 24 hours for 7 days) and (2) taking drug only one day (58 subjects divided into 2 cohorts and treated over 2 periods; one tablet of ST-101 (FDC olmesartan and rosuvastatin) tablet of 40 mg olmesartan medoxomil/20 mg rosuvastatin calcium was administered once orally as the test drug, or 1 tablet each of 40 mg olmesartan medoxomil and 20 mg rosuvastatin calcium was co-administered once orally as the comparator). Pharmacokinetic analyses were performed. For PK analyses, blood samples were collected at 0 (pre-dose), 0.5, 2, 2.5, 3, 4, 5, 6, 7, 8, 10, 12, 16, 24, and 48 hr after dosing of olmesartan either as FDC or as single agent. The results are graphically illustrated in FIG. 1. FIG. 1 compares olmesartan AUC (area-under-the-curve) for subjects taking olmesartan regularly for 7 days (Multiple Dosing ×7, solid circles) and for subjects taking olmesartan only 1 day (Single Dosing ×1, open circles): mean+/−95% confidence interval (CI) for subjects taking olmesartan regularly for 7 days. […] The differences between compliance and non-compliance across a 24 hr period were determined (see Table 1). The % reduction in blood concentration can be used to determine if the patient is missing his/her medication. […] There is about 40 ng/mL remaining at 24 hr, which accumulated to about 60 ng/mL following consistently medication for 7 days. The comparison between full compliance for 7 days versus noncompliance is tabulated below.

CCCc1nc(C(C)(C)O)c(C(=O)O)n1Cc1ccc(-c2ccccc2-c2nnn[nH]2)cc1 [olmesartan]
% Reduction ([1]; Time 1.5 hrs, Compliance-7X vs Non-Compliance-1X): 14.15%
concentration at 1 h ([1]; male, human, blood, oral, 40 mg, Time 1 hrs, dosing every 24 hours for 7 days, read-out: Blood concentration (ng/mL)/Compliance-7X): 858 ng/mL
subjects achieving target blood pressure reduction [2]: about 50%
% Reduction ([3]; Time 0 hrs): Infinity
% Reduction ([3]; Time 1 hrs): 26.84%
% Reduction ([3]; Time 2 hrs): 12.43%
% Reduction ([3]; Time 2.5 hrs): 13.33%
% Reduction ([3]; Time 3 hrs): 19.97%
% Reduction ([3]; Time 4 hrs): 19.85%
% Reduction ([3]; Time 5 hrs): 15.71%
% Reduction ([3]; Time 6 hrs): 20.17%
% Reduction ([3]; Time 8 hrs): 24.95%
% Reduction ([3]; Time 10 hrs): 30.40%
% Reduction ([3]; Time 12 hrs): 31.90%
% Reduction ([3]; Time 16 hrs): 40.22%
% Reduction ([3]; Time 24 hrs): 61.33%
concentration at 24 h ([3]; male, human, blood, oral, 40 mg, 24 hr, following consistently medication for 7 days, read-out: blood concentration remaining at 24 hr, accumulated): ~60 ng/mL
concentration at 0 h ([3]; male, human, blood, oral, 40 mg, Time 0 hrs, dosing every 24 hours for 7 days, read-out: Blood concentration (ng/mL)/Compliance-7X): 54.1 ng/mL
concentration at 1.5 h ([3]; male, human, blood, oral, 40 mg, dosing every 24 hours for 7 days, read-out: Blood concentration (ng/mL)/Compliance-7X): 1060 ng/mL
concentration at 1.5 h ([3]; male, human, blood, oral, 40 mg, drug taken only one day, read-out: Blood concentration (ng/mL)/Non-Compliance-1X): 932 ng/mL
concentration at 2 h ([3]; male, human, blood, oral, 40 mg, Time 2 hrs, dosing every 24 hours for 7 days, read-out: Blood concentration (ng/mL)/Compliance-7X): 1130 ng/mL
concentration at 2.5 h ([3]; male, human, blood, oral, 40 mg, Time 2.5 hrs, dosing every 24 hours for 7 days, read-out: Blood concentration (ng/mL)/Compliance-7X): 1110 ng/mL
concentration at 3 h ([3]; male, human, blood, oral, 40 mg, Time 3 hrs, dosing every 24 hours for 7 days, read-out: Blood concentration (ng/mL)/Compliance-7X): 1090 ng/mL
concentration at 4 h ([3]; male, human, blood, oral, 40 mg, Time 4 hrs, dosing every 24 hours for 7 days, read-out: Blood concentration (ng/mL)/Compliance-7X): 911 ng/mL
concentration at 5 h ([3]; male, human, blood, oral, 40 mg, Time 5 hrs, dosing every 24 hours for 7 days, read-out: Blood concentration (ng/mL)/Compliance-7X): 714 ng/mL
concentration at 6 h ([3]; male, human, blood, oral, 40 mg, Time 6 hrs, dosing every 24 hours for 7 days, read-out: Blood concentration (ng/mL)/Compliance-7X): 543 ng/mL
concentration at 8 h ([3]; male, human, blood, oral, 40 mg, Time 8 hrs, dosing every 24 hours for 7 days, read-out: Blood concentration (ng/mL)/Compliance-7X): 361 ng/mL
concentration at 10 h ([3]; male, human, blood, oral, 40 mg, Time 10 hrs, dosing every 24 hours for 7 days, read-out: Blood concentration (ng/mL)/Compliance-7X): 263 ng/mL
concentration at 12 h ([3]; male, human, blood, oral, 40 mg, Time 12 hrs, dosing every 24 hours for 7 days, read-out: Blood concentration (ng/mL)/Compliance-7X): 193 ng/mL
concentration at 16 h ([3]; male, human, blood, oral, 40 mg, Time 16 hrs, dosing every 24 hours for 7 days, read-out: Blood concentration (ng/mL)/Compliance-7X): 123 ng/mL
concentration at 24 h ([3]; male, human, blood, oral, 40 mg, Time 24 hrs, dosing every 24 hours for 7 days, read-out: Blood concentration (ng/mL)/Compliance-7X): 66.2 ng/mL
concentration at 24 h ([3]; male, human, blood, oral, 24 hr, before accumulation, read-out: blood concentration remaining at 24 hr): ~40 ng/mL
concentration at 0 h ([3]; male, human, blood, oral, Time 0 hrs, drug taken only one day, read-out: Blood concentration (ng/mL)/Non-Compliance-1X): 0 ng/mL
concentration at 1 h ([3]; male, human, blood, oral, Time 1 hrs, drug taken only one day, read-out: Blood concentration (ng/mL)/Non-Compliance-1X): 677 ng/mL
concentration at 2 h ([3]; male, human, blood, oral, Time 2 hrs, drug taken only one day, read-out: Blood concentration (ng/mL)/Non-Compliance-1X): 1000 ng/mL
concentration at 2.5 h ([3]; male, human, blood, oral, Time 2.5 hrs, drug taken only one day, read-out: Blood concentration (ng/mL)/Non-Compliance-1X): 976 ng/mL
concentration at 3 h ([3]; male, human, blood, oral, Time 3 hrs, drug taken only one day, read-out: Blood concentration (ng/mL)/Non-Compliance-1X): 912 ng/mL
concentration at 4 h ([3]; male, human, blood, oral, Time 4 hrs, drug taken only one day, read-out: Blood concentration (ng/mL)/Non-Compliance-1X): 760 ng/mL
concentration at 5 h ([3]; male, human, blood, oral, Time 5 hrs, drug taken only one day, read-out: Blood concentration (ng/mL)/Non-Compliance-1X): 617 ng/mL
concentration at 6 h ([3]; male, human, blood, oral, Time 6 hrs, drug taken only one day, read-out: Blood concentration (ng/mL)/Non-Compliance-1X): 452 ng/mL
concentration at 8 h ([3]; male, human, blood, oral, Time 8 hrs, drug taken only one day, read-out: Blood concentration (ng/mL)/Non-Compliance-1X): 289 ng/mL
concentration at 10 h ([3]; male, human, blood, oral, Time 10 hrs, drug taken only one day, read-out: Blood concentration (ng/mL)/Non-Compliance-1X): 202 ng/mL
concentration at 12 h ([3]; male, human, blood, oral, Time 12 hrs, drug taken only one day, read-out: Blood concentration (ng/mL)/Non-Compliance-1X): 146 ng/mL
concentration at 16 h ([3]; male, human, blood, oral, Time 16 hrs, drug taken only one day, read-out: Blood concentration (ng/mL)/Non-Compliance-1X): 87.9 ng/mL
concentration at 24 h ([3]; male, human, blood, oral, Time 24 hrs, drug taken only one day, read-out: Blood concentration (ng/mL)/Non-Compliance-1X): 41.1 ng/mL
AUC ([3]; male, human, blood, oral, population of subjects receiving olmesartan at 40 mg/day, daily administration, read-out: median AUC (target AUC)): ~7000 ng·h/mL
clearance ([3]; much of the drug gone from the system at 48 hr): rapid clearance
